# Assay results published in US10759816B2, “Heterocyclic compounds as RSV inhibitors” (Enanta Pharmaceuticals, Inc., priority 2016, dated 2020).
# Test system: genotype A, "Long" strain RSV
# Assay: RSV-A in vitro cytoprotection assay in HEp-2 cells (ATPlite readout of cell viability)
# Format: cell-based, Human respiratory syncytial virus
# Conditions: human respiratory syncytial virus, HEp-2, HEp-2 cells, genotype A “Long” strain RSV, cytoprotection; read-out: Human RSV-A (“Long” strain) EC50
# Excerpt: RSV is a single stranded negative sense RNA virus that causes respiratory tract infections which can be dangerous to infants, the elderly, and immunosuppressed individuals. Currently there is no vaccine, and therapeutic options are both costly and of limited effectiveness. These approved treatments are Ribavirin, and Palivizumab/Synagis (a monoclonal antibody). RSV has two genotypes, A and B, which differ primarily in the structure of the virus' surface “G” attachment protein. Our current primary screen focuses on RSV-A and uses an in vitro cytoprotection assay where compounds are added in 2-fold dilutions to cells which are then subjected to fully replicative viral particles. Cell viability is measured several days later along with separate measurements of compound cytotoxicity. This report focuses on the results of our most recent screening of compounds.
# HEp-2 cells, (originally derived from tumors grown in irradiated-cortisonised weanling rats that had been injected with epidermoid carcinoma tissue from a person's larynx, but later found to be indistinguishable from HeLa cells by PCR DNA analysis), were used for the culturing of genotype A, “Long” strain RSV. Flasks were inoculated with RSV and viral stocks were collected once cytopathic effect (CPE) was greater than 90%. Viral stocks in 25% sucrose media were snap frozen using liquid nitrogen to increase viral stability. Viral stock titers were quantified by tissue culture infectious dose 50% (TCID50) using 8,000 cells per well and 3-fold viral dilutions across a 96-well plate, cultured for 4 days.
# Following extensive parameter testing, the final assay is run as follows: HEp-2 cells are seeded into the inner 60 wells of a 96-well plate at 8,000 cells per well in a volume of 50 μL using Growth Media (DMEM without phenol red, 1% L-Glut, 1% Penn/Strep, 1% nonessential amino acids, 10% FBS). 2-Fold serial dilutions of control and test compounds are added to the wells in duplicate in a total volume of 25 μL. Viral stock is then added to the wells in a volume of 25 μL, bringing the total volume of each well to 100 μL. Each 96-well plate has a control column of 6 wells with cells and virus but no compound (negative control, max CPE), a column with cells but no compound or virus (positive control, minimum CPE), and a column with no cells or virus or compound (background plate/reagent control). The control wells with cells but no virus are given an additional 25 uL of growth media containing an equal quantity of sucrose as those wells receiving the viral stock in order to keep consistent in media and volume conditions. The outer wells of the plate are filled with 125 μL of growth media to act as a thermal and evaporative moat around the test wells. Following a 4-day incubation period, the plates are read using ATPlite (50 uL added per well), which quantifies the amount of ATP (a measure of cell health) present in each well. Assay plates are read using the Envision luminometer. In parallel, cytotoxicity is examined on an additional 96-well plate treated in an identical manner, but substituting the 25 μL of viral stock for 25 μL of growth media. […] EC50 ranges are as follows: A <0.4 μM; B 0.4-0.8 μM; C >0.8 μM.
row,Structure (SMILES),EC50 [nM]
1,Cc1cccc(F)c1NC(=O)c1cc2c(s1)-c1ccccc1N(C(=O)c1cccc(-n3ccnc3C3CCC3)n1)CC2 [Example 147],< 400
2,Cc1cccc(F)c1NC(=O)c1cc2c(s1)-c1ccccc1N(C(=O)c1cccc(N3CCOc4cccc(Br)c4C3)n1)CC2 [Example 369],400 to 800
3,N[C@H]1CCN(c2cccc(C(=O)N3CCc4cc(C(=O)NC5CC5)sc4-c4ccccc43)n2)C1 [Example 37],> 800
4,COc1ccc(-c2cccc(C(=O)N3CCc4cc(C(=O)NC5CC5)sc4-c4ccccc43)c2)cn1 [Example 6],> 800
5,O=C(NC1CC1)c1cc2c(s1)-c1ccccc1N(C(=O)c1cccc(N[C@@H]3CCOC3)n1)CC2 [Example 290],> 800
6,O=C(NC1CC1)c1cc2c(s1)-c1ccccc1N(C(=O)c1ccc(N3CCOCC3)cc1)CC2 [Example 3],> 800
7,O=C(NC1CC1)c1cc2c(s1)-c1ccccc1N(C(=O)c1cccc(N3C4CCC3COC4)n1)CC2 [Example 29],400 to 800
8,O=C(NC1CS(=O)(=O)C1)c1cc2c(s1)-c1ccccc1N(C(=O)c1cccc(-c3c[nH]nc3C3CC3)n1)CC2 [Example 181],> 800
9,Cc1cccc(F)c1NC(=O)c1cc2c(s1)-c1ccccc1N(C(=O)c1cccc(N3CCCOC(C)(C)C3)n1)CC2 [Example 402],< 400
10,O=C(NC1CC1)c1cc2c(s1)-c1ccccc1N(C(=O)c1cncc(N3CCOCC3)c1)CC2 [Example 47],> 800
11,O=C(NC1CC1)c1cc2c(s1)-c1ccccc1N(C(=O)c1cccc(-n3ccc4ccccc43)n1)CC2 [Example 112],> 800
12,O=C(NC1CC1)c1cc2c(s1)-c1ccccc1N(C(=O)c1cccc(N3CCC4(CCOCC4)CC3)n1)CC2 [Example 26],400 to 800
13,Cc1cccc(F)c1NC(=O)c1cc2c(s1)-c1ccccc1N(C(=O)c1cccc(-c3cnc(C)n3C3CC3)n1)CC2 [Example 198],< 400
14,O=C(N[C@H]1CCOC1)c1cc2c(s1)-c1ccccc1N(C(=O)c1cccc(N3CCOc4ccccc4C3)n1)CC2 [Example 310],< 400
15,Cc1cccc(F)c1NC(=O)c1cc2c(s1)-c1ccc(F)cc1N(C(=O)c1cccc(N3C(=O)CC[C@@H]3CN)n1)CC2 [Example 492],> 800
16,COc1cccc(Oc2cccc(C(=O)N3CCc4cc(C(=O)NC5CC5)sc4-c4ccccc43)n2)c1 [Example 393],> 800
17,Cc1cccc(F)c1NC(=O)c1cc2c(s1)-c1ccccc1N(C(=O)c1cccc(N3C[C@H]4COC[C@H]4C3)n1)CC2 [Example 376],> 800
18,CC(=O)N1CCCN(c2cccc(C(=O)N3CCc4cc(C(=O)Nc5c(C)cccc5F)sc4-c4ccccc43)n2)c2ccccc21 [Example 378],< 400
19,Cc1ccc2c(-c3cccc(C(=O)N4CCc5cc(C(=O)Nc6c(C)cccc6F)sc5-c5ccccc54)n3)cn(C(=O)OC(C)(C)C)c2c1 [Example 246],> 800
20,Cc1ccc2c(-c3cccc(C(=O)N4CCc5cc(C(=O)Nc6c(C)cccc6F)sc5-c5ccccc54)n3)c[nH]c2c1 [Example 247],< 400
21,COc1cccc2c1ccn2-c1cccc(C(=O)N2CCc3cc(C(=O)NC4CC4)sc3-c3ccccc32)n1 [Example 114],> 800
22,COCC(C)(C)CNc1cccc(C(=O)N2CCc3cc(C(=O)Nc4c(C)cccc4F)sc3-c3ccccc32)n1 [Example 421],< 400
23,COc1ccccc1[C@H](C)Nc1cccc(C(=O)N2CCc3cc(C(=O)NC4CC4)sc3-c3ccccc32)n1 [Example 292],> 800
24,COc1ccc(=O)n(-c2cccc(C(=O)N3CCc4cc(C(=O)Nc5c(C)cccc5F)sc4-c4ccccc43)n2)c1 [Example 407],> 800
25,Cc1cccc(F)c1NC(=O)c1cc2c(s1)-c1c(F)cccc1N(C(=O)c1cccc(N3CCOc4ccccc4C3)n1)CC2 [Example 489],< 400
26,O=C(NC1CC1)c1cc2c(s1)-c1ccccc1N(C(=O)c1cccc(-c3ccc(F)nc3)n1)CC2 [Example 81],400 to 800
27,Cc1cccc(F)c1NC(=O)c1cc2c(s1)-c1ccccc1N(C(=O)c1cccc(N3CC4CCC(C4)C3)n1)CC2 [Example 443],> 800

row,Structure (SMILES),EC50 [nM]
1,Cc1cccc(F)c1NC(=O)c1cc2c(s1)-c1ccccc1N(C(=O)c1cccc(N3CCOc4c(F)cccc4C3)n1)CC2 [Example 365],< 400
2,O=C(NC1CC(F)(F)C1)c1cc2c(s1)-c1ccccc1N(C(=O)c1cccc(-c3c[nH]nc3C3CC3)n1)CC2 [Example 179],< 400
3,CN1CCC(NC(=O)c2cc3c(s2)-c2ccccc2N(C(=O)c2cccc(N4CCOc5ccccc5C4)n2)CC3)CC1 [Example 308],< 400
4,COC(C)(C)CN(C)c1cccc(C(=O)N2CCc3cc(C(=O)Nc4c(C)cccc4F)sc3-c3ccccc32)n1 [Example 470],< 400
5,COc1cccc2c1ccn2-c1cccc(C(=O)N2CCc3cc(C(=O)Nc4c(C)cccc4F)sc3-c3ccccc32)n1 [Example 119],400 to 800
6,O=C(NC1CC1)c1cc2c(s1)-c1ccccc1N(C(=O)c1cccc(-c3cnc(N4CCOCC4)s3)n1)CC2 [Example 161],400 to 800
7,CN1CC(NC(=O)c2cc3c(s2)-c2ccccc2N(C(=O)c2cccc(-c4c[nH]nc4C4CC4)n2)CC3)C1 [Example 183],> 800
8,Cc1cccc(F)c1NC(=O)c1cc2c(s1)-c1ccccc1N(C(=O)c1cccc(N3CCC[C@H]3c3ccccn3)n1)CC2 [Example 485],> 800
9,Cc1cccc(F)c1NC(=O)c1cc2c(s1)-c1ccccc1N(C(=O)c1cccc(-c3cn(S(C)(=O)=O)nc3C3CC3)n1)CC2 [Example 215],< 400
10,O=C(Nc1cc2c(s1)-c1ccccc1N(C(=O)c1cccc(N3CCOc4ccccc4C3)n1)CC2)c1ccccc1 [Example 313],400 to 800
11,O=C(NC1CC1)c1cc2c(s1)-c1ccccc1N(C(=O)c1cccc(-c3cccnc3N3CCCOCC3)n1)CC2 [Example 88],400 to 800
12,O=C(NC1CC1)c1cc2c(s1)-c1ccccc1N(C(=O)c1ccc3ccc(-c4ccncc4)nc3c1)CC2 [Example 187],> 800
13,O=C(Nc1ccccc1)Nc1cc2c(s1)-c1ccccc1N(C(=O)c1cccc(N3CCOc4ccccc4C3)n1)CC2 [Example 311],> 800
14,COc1ccc(-n2cncc2-c2cccc(C(=O)N3CCc4cc(C(=O)Nc5c(C)cccc5F)sc4-c4ccccc43)n2)cc1 [Example 204],> 800
15,Cn1ccc(-c2cccc(C(=O)N3CCc4cc(C(=O)Nc5ccccc5N)sc4-c4ccccc43)n2)n1 [Example 240],> 800
16,CN(Cc1cccnc1)c1cccc(C(=O)N2CCc3cc(C(=O)NC4CC4)sc3-c3ccccc32)n1 [Example 295],> 800
17,COc1ccc2cc(CN(C)c3cccc(C(=O)N4CCc5cc(C(=O)Nc6c(C)cccc6F)sc5-c5ccccc54)n3)ccc2c1 [Example 356],> 800
18,Cc1cccc(F)c1NC(=O)c1cc2c(o1)-c1ccccc1N(C(=O)c1cccc(-c3c[nH]nc3C3CC3)n1)CC2 [Example 275],< 400
19,Cc1cnc(N2CC3(CCCOC3)C2)c(NC(=O)c2ccc(C(=O)N3CCc4cc(C(=O)Nc5c(C)cccc5F)sc4-c4ccccc43)cc2)c1 [Example 138],> 800
20,O=C(NC1CC1)c1cc2c(s1)-c1ccccc1N(C(=O)c1cccc(-c3ccc(N4CCOCC4)nc3)n1)CC2 [Example 89],400 to 800
21,O=C(NC1CC1)c1cc2c(s1)-c1ccccc1N(C(=O)c1cccc(-c3cccnc3N3CCOCC3)n1)CC2 [Example 87],400 to 800
22,Cc1cccc(F)c1NC(=O)c1cc2c(s1)-c1ccccc1N(C(=O)c1cccc(NCc3ccco3)n1)CC2 [Example 335],< 400
23,Cc1cccc(F)c1NC(=O)c1cc2c(s1)-c1ccccc1N(C(=O)c1cccc(N3CCOC4(CCCC4)C3)n1)CC2 [Example 416],< 400
24,COC(=O)n1cc(-c2ccc(C(=O)N3CCc4cc(C(=O)Nc5c(C)cccc5F)sc4-c4ccccc43)cc2)c2cccnc21 [Example 267],> 800
25,O=C(Nc1ncc2c(n1)-c1ccccc1N(C(=O)c1cccc(N3CCCOCC3)n1)CC2)C1CC1 [Example 111],> 800
26,Cc1cccc(F)c1NC(=O)c1cc2c(s1)-c1ccccc1N(C(=O)c1cccc(N3C(=O)OC[C@H]3c3ccccc3)n1)CC2 [Example 424],> 800
27,O=C(NC1CC1)c1cc2c(s1)-c1ccccc1N(C(=O)c1ccc(F)c(N3CCCOCC3)n1)CC2 [Example 45],< 400
